From patent US4281121A, “1,3,4-Thiadiazole-2-carboxylic acid derivatives, process for making the same and fungicidal and nematocidal compositions containing same” (Schering Aktiengesellschaft, priority 1978, dated 1981)
Read-outs that look alike come from different tables or passages of the source.

What was measured:
Botrytis cinerea [1] = test: Inhibition of fungus in a nutrient solution: Botrytis cinerea; format: cell-based; conditions: 6 days at 21-23° C.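 Further: 0 means no fungus growth and higher grades mean more surface covered.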
Ustilago nuda nuda = test: Treatment of barley seeds in open field tests against Ustilago nuda nuda; format: in vivo; conditions: winter barley; 100 g/100 kg seeds; eight months
Protocol: (§1) Treatment of wheat and barley seeds in open field tests against Ustilago nuda
(§2) Winter wheat seeds which had been infested with the smut cause Ustilago nuda tritici and winter barley seeds infested with Ustilago nuda nuda were treated with the agents listed in the table below and were seeded at seeding time in open fields. As a control untreated seeds were likewise included in the seed. After eight months the affected heads were counted for each test group and their proportion was calculated in order to find the fungicidal activity by the following formula: [formula]
(§3) The active compounds were employed in the form of 20% concentration powder compositions.

Tilletia caries [2] = test: Seed treatment in open field tests regarding infestation by Tilletia caries (oats); format: in vivo
Penicillium digitatum = test: Inhibition of fungus in a nutrient solution: Penicillium digitatum; format: cell-based; conditions: 6 days at 21-23° C.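 Further: 0 means no fungus growth and higher grades mean more surface covered.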
Ustilago avenae = test: Oat seed treatment for Ustilago avenae; format: in vivo; conditions: 10 weeks
Fusarium avenaceum [3] = test: Inhibition of fungus in a nutrient solution: Fusarium avenaceum; format: cell-based; conditions: 6 days at 21-23° C.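 Further: 0 means no fungus growth and higher grades mean more surface covered.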
Protocol: Inhibition of fungus in a nutrient solution
20 ml of a nutrient solution of grape juice and water (1:1) were filled into a glass vial of a 100 ml capacity and were mixed with the pulverulent active agents which appear from the subsequent table. Thereafter, the solution was inoculated with conidia (spores) of the test fungi.
After an incubation time of 6 days at 21° to 23° C. the fungus development on the surface of the nutrient solution was evaluated. The test fungi used were the following: Penicillium digitatum, Botrytis cinerea, Alternaria solani, Fusarium avenaceum.
The evaluation was carried out at a scale from 0 to 5 as follows: […]

[4] = tested on: Helminthosporium gramineum; test: Seed treatment in open field tests for infestation by Helminthosporium gramineum (barley); format: in vivo
Protocol: Seed treatment in open field tests for infestation by Helminthosporium gramineum
The active agents were used in the form of pulverulent compositions. After about 8 months in case of winter barley and after about 3 months in case of summer barley the infested plants were counted and the activity was calculated by the formula [formula]

Pythium ultimum = test: Threshold concentration test for use of the compounds against Pythium ultimum (infested soil, garden peas); format: in vivo; design: key to root evaluation (1-4): 4: white roots without fungous necrosis; 3: white roots, minor fungous necrosis; 2: brown roots, already more pronounced fungous necrosis; 1: heavy fungous necrosis, roots rotted; conditions: for root evaluation (1-4): 3 weeks; for number of sound peas: 20 grains per dish, 3 weeks at 20-24° C.
In short: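 Garden pea seeds, 20 per dish, went straight into Pythium ultimum-infested soil into which 20% pulverulent formulations had been uniformly blended. Sound plants counted and roots rated 1–4 after three weeks of hothouse growth at 20–24 °C.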

Venturia inaequalis = test: Prophylactic leaf treatment of apples in open field test against Venturia inaequalis; format: in vivo; conditions: 3 weeks
Alternaria solani = test: Inhibition of fungus in a nutrient solution: Alternaria solani; format: cell-based; conditions: 6 days at 21-23° C.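 Further: 0 means no fungus growth and higher grades mean more surface covered.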
Piricularia oryzae = format: in vivo; conditions: 5 days
Fusarium avenaceum [5] = test: Threshold concentration test in case of Fusarium avenaceum (infested soil, garden peas); format: in vivo; conditions: for number of sound peas: 20 grains per dish, 18 days at 20-24° C.; for root evaluation (1-4): 18 days
In short: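 Soil heavily infested with Fusarium avenaceum was mixed uniformly with a 20% powder formulation of active agent, then sown immediately with 20 garden pea seeds ('Wunder von Kelvedon') per dish. After 18 days in a greenhouse at 20° to 24° C., sound plants were counted and roots scored on a 1–4 scale.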

Ustilago nuda tritici = test: Treatment of wheat seeds in open field tests against Ustilago nuda tritici; format: in vivo; conditions: winter wheat; 100 g/100 kg seeds; eight months
Protocol: as §1, §2, §3

Septoria nodorum = test: Treatment of oat seeds against Septoria nodorum; format: in vivo; conditions: 4 weeks
Protocol: Effects of the treatment of oat seeds against Septoria nodorum
They were then seeded on a moist substrate for germination. As a control untreated seeds were likewise seeded. At about 6° C. the seed was incubated in an air-conditioned chamber until after 4 weeks the proportion of diseased seeds could be determined and the activity of the fungicidal compounds was calculated on the basis of the following formula: [formula]
The active agents were applied in the form of 20% concentration pulverulent compositions.

Fusarium nivale = test: Treatment of rye seeds against Fusarium nivale; format: in vivo; conditions: 100 g/100 kg; about 4 weeks
Protocol: Treatment of rye seeds against Fusarium nivale
Rye seeds with a natural infestation by Fusarium nivale were seeded in earth filled pots and left for germination at about 6° C. Part of the seeds was treated before seeding with the active agents as appears from the subsequent table and part was untreated. After emergence of the seedlings the plants were illuminated with artificial light for 12 hours each day. After about 4 weeks the degree of infestation was determined in percentages. The fungicidal activity was calculated on the basis of the following formula: [formula]
The active agents were used in the form of 20% concentration compositions.

Botrytis cinerea [6] = test: Prophylactic leaf treatment of tomato plants against Botrytis cinerea; format: in vivo; conditions: concentration of 0.025 of the active agent (unit not given)
Tilletia caries [7] = test: Treatment of oat seeds infested with Tilletia caries (spore germination); format: in vivo
[8] = tested on: root gall nematodes (Meloidogyne sp.); test: Threshold concentration test with root gall nematodes (cucumber, infested soil); format: in vivo; conditions: 28 days at 24-27° C.
From the text: Threshold concentration test with root gall nematodes (Meloidogyne sp.)
20% concentration pulverulent active agents as listed in the table below were mixed in a uniform manner with a soil which had been heavily infested by root gall nematodes. After waiting for 3 days the treated soil was placed in two clay dishes of a capacity of 0.5 liter. 10 grain of cucumber seeds of the type "Guntruud" were placed into each dish.
Thereafter, the contents of the dishes were permitted to develop at a temperature of 24° to 27° C. for a time of 28 days in a hothouse. The cucumber roots were then washed out and were examined in a water bath regarding nematode infestation. The reduction of the infestation by the active agents as compared with untreated control material was determined in percentages.
The nematocidal activity was calculated by the formula
A=the infestation in the untreated control material and
B=the infestation after treatment.

[9] = winter oats, 100 g active agent/100 kg, about 9 months
[10] = summer barley, 25 g active agent/100 kg barley, about 3 months
[11] = summer barley, 50 g active agent/100 kg barley, about 3 months
[12] = summer barley, 100 g active agent/100 kg barley, about 3 months
[13] = winter barley, 75 g active agent/100 kg barley, about 8 months
[14] = winter barley, 100 g active agent/100 kg barley, about 8 months
[15] = concentration of active agent 0.005 (in gram)
[16] = concentration of active agent 0.025 (in gram)
[17] = 20 g active agent per 100 kg, about 5 weeks
[18] = 50 g active agent per 100 kg, about 5 weeks
[19] = concentration of active agent 0.1 (percentages)
[20] = winter barley, 25 g active agent/100 kg barley, about 8 months
[21] = winter barley, 50 g active agent/100 kg barley, about 8 months

## CC(C)S(=O)(=O)c1nnc(C#N)s1 [5-isopropylsulfonyl-1,3,4-thiadiazole-2-carbonitrile]
Botrytis cinerea [1]; 0.002%
  fungus development on the surface of the nutrient solution (0-5): 1
Botrytis cinerea [1]; 0.004%
  fungus development on the surface of the nutrient solution (0-5): 0
Ustilago nuda nuda
  % activity: 93%
Tilletia caries [2]; [9]
  % activity: 100%
Penicillium digitatum; 0.002%
  fungus development on the surface of the nutrient solution (0-5): 0
Penicillium digitatum; 0.004%
  fungus development on the surface of the nutrient solution (0-5): 0
Ustilago avenae; 100 g active agent/100 kg
  % activity: 97%
Fusarium avenaceum [3]; 0.002%
  fungus development on the surface of the nutrient solution (0-5): 0
Fusarium avenaceum [3]; 0.004%
  fungus development on the surface of the nutrient solution (0-5): 0
[4]; [10]
  % activity: 100%
[4]; [11]
  % activity: 99.8%
[4]; [12]
  % activity: 100%
[4]; [13]
  % activity: 99%
[4]; [14]
  % activity: 100%
Pythium ultimum; 20 mg/l soil
  root evaluation (1-4): 2
  number of sound peas: 18
Pythium ultimum; 40 mg/l soil
  root evaluation (1-4): 4
  number of sound peas: 20
Pythium ultimum; 80 mg/l soil
  root evaluation (1-4): 4
  number of sound peas: 19
Venturia inaequalis; [15]
  % activity: 97%
Venturia inaequalis; [16]
  % activity: 100%
Helminthosporium gram; [17]
  % activity: 86%
Helminthosporium gram; [18]
  % activity: 97%
Alternaria solani; 0.002%
  fungus development on the surface of the nutrient solution (0-5): 0
Alternaria solani; 0.004%
  fungus development on the surface of the nutrient solution (0-5): 0
Piricularia oryzae; [19]
  % activity: 94%
Fusarium avenaceum [5]; 25 mg/l soil
  number of sound peas: 20
  root evaluation (1-4): 4
Fusarium avenaceum [5]; 50 mg/l soil
  number of sound peas: 20
  root evaluation (1-4): 4
Fusarium avenaceum [5]; 100 mg/l soil
  number of sound peas: 19
  root evaluation (1-4): 4
Ustilago nuda tritici
  % activity: 70%

## CNC(=O)c1nnc(S(C)(=O)=O)s1 [5-methylsulfonyl-1,3,4-thiadiazole-2-carboxylic acid methylamide]
Tilletia caries [2]; summer oats, 50 g active agent/100 kg, about 4 months
  % activity: 100%
Septoria nodorum; 50 g active agent/100 kg seeds
  % activity: 93%
Fusarium nivale
  % activity: 100%
Ustilago avenae; 100 g active agent/100 kg
  % activity: 90%
[4]; [10]
  % activity: 93%
[4]; [11]
  % activity: 100%
[4]; [12]
  % activity: 100%
[4]; [20]
  % activity: 99.5%
[4]; [21]
  % activity: 99.5%
[4]; [13]
  % activity: 100%
Pythium ultimum; 20 mg/l soil
  root evaluation (1-4): 4
  number of sound peas: 20
Pythium ultimum; 40 mg/l soil
  root evaluation (1-4): 4
  number of sound peas: 18
Pythium ultimum; 80 mg/l soil
  root evaluation (1-4): 4
  number of sound peas: 18
Venturia inaequalis; [15]
  % activity: 90%
Venturia inaequalis; [16]
  % activity: 92%
Helminthosporium gram; [17]
  % activity: 99%
Helminthosporium gram; [18]
  % activity: 100%
Piricularia oryzae; concentration of active agent 0.02 (percentages)
  % activity: 65%
Piricularia oryzae; [19]
  % activity: 91%
Botrytis cinerea [6]
  % activity: 78%

## Methoxyethyl-Hg--silicate [reference compound]
Tilletia caries [2]; summer oats, 2.6 g active agent/100 kg, about 4 months
  % activity: 99%
Tilletia caries [2]; winter oats, 5.3 g active agent/100 kg, about 9 months
  % activity: 99%
Septoria nodorum; 1.3 g active agent/100 kg seeds
  % activity: 86%
Ustilago avenae; 16 g active agent/100 kg
  % activity: 66%
[4]; summer barley, 5.2 g active agent/100 kg barley
  % activity: 99.8%
[4]; summer barley, 10.4 g active agent/100 kg barley
  % activity: 100%
[4]; winter barley, 2.6 g active agent/100 kg barley
  % activity: 99.4%
[4]; winter barley, 5.2 g active agent/100 kg barley
  % activity: 100%
Tilletia caries [7]; 1.3 g active agent per 100 kg
  % activity: 90%
Tilletia caries [7]; 2.6 g active agent per 100 kg
  % activity: 100%
Helminthosporium gram; 0.2 g active agent per 100 kg
  % activity: 63%
Helminthosporium gram; 0.5 g active agent per 100 kg
  % activity: 91%
Helminthosporium gram; 1.0 g active agent per 100 kg
  % activity: 98%

## CS(=O)(=O)c1nnc(C(N)=O)s1 [5-methylsulfonyl-1,3,4-thiadiazole-2-carboxamide]
Tilletia caries [2]; winter oats, 25 g active agent/100 kg, about 9 months
  % activity: 100%
Tilletia caries [2]; winter oats, 50 g active agent/100 kg, about 9 months
  % activity: 100%
Tilletia caries [2]; [9]
  % activity: 100%
Septoria nodorum; 50 g active agent/100 kg seeds
  % activity: 91%
Fusarium nivale
  % activity: 99%
Ustilago avenae; 100 g active agent/100 kg
  % activity: 84%
Ustilago avenae; 150 g active agent/100 kg
  % activity: 90%
[4]; [10]
  % activity: 95%
[4]; [11]
  % activity: 100%
[4]; [12]
  % activity: 100%
[4]; [20]
  % activity: 90%
[4]; [21]
  % activity: 96%
[4]; [13]
  % activity: 100%
[4]; [14]
  % activity: 100%
Pythium ultimum; 20 mg/l soil
  root evaluation (1-4): 4
  number of sound peas: 16
Pythium ultimum; 40 mg/l soil
  root evaluation (1-4): 4
  number of sound peas: 18
Pythium ultimum; 80 mg/l soil
  root evaluation (1-4): 4
  number of sound peas: 20
Helminthosporium gram; 10 g active agent per 100 kg, about 5 weeks
  % activity: 95%
Helminthosporium gram; [17]
  % activity: 100%
Helminthosporium gram; [18]
  % activity: 100%
Piricularia oryzae; [19]
  % activity: 96%

## CS(=O)(=O)c1nnc(C#N)s1 [5-methylsulfonyl-1,3,4-thiadiazole-2-carbonitrile]
Botrytis cinerea [1]; 0.002%
  fungus development on the surface of the nutrient solution (0-5): 1
Botrytis cinerea [1]; 0.004%
  fungus development on the surface of the nutrient solution (0-5): 0
Penicillium digitatum; 0.002%
  fungus development on the surface of the nutrient solution (0-5): 1
Penicillium digitatum; 0.004%
  fungus development on the surface of the nutrient solution (0-5): 0
Fusarium avenaceum [3]; 0.002%
  fungus development on the surface of the nutrient solution (0-5): 0
Fusarium avenaceum [3]; 0.004%
  fungus development on the surface of the nutrient solution (0-5): 0
[8]; 50 mg per liter soil
  Percentage reduction of infestation: 71%
[8]; 100 mg per liter soil
  Percentage reduction of infestation: 88%
[8]; 200 mg per liter soil
  Percentage reduction of infestation: 96%
Pythium ultimum; 20 mg/l soil
  root evaluation (1-4): 3
  number of sound peas: 17
Pythium ultimum; 40 mg/l soil
  root evaluation (1-4): 4
  number of sound peas: 16
Pythium ultimum; 80 mg/l soil
  root evaluation (1-4): 4
  number of sound peas: 20
Alternaria solani; 0.002%
  fungus development on the surface of the nutrient solution (0-5): 0
Alternaria solani; 0.004%
  fungus development on the surface of the nutrient solution (0-5): 0
Fusarium avenaceum [5]; 25 mg/l soil
  number of sound peas: 18
  root evaluation (1-4): 4
Fusarium avenaceum [5]; 50 mg/l soil
  number of sound peas: 17
  root evaluation (1-4): 4
Fusarium avenaceum [5]; 100 mg/l soil
  number of sound peas: 19
  root evaluation (1-4): 4
